According to the supplement of paper PMC10307832:

Compound: C1CN(CCC1C(C2=CC3=C(C=C2)OCO3)(C4=CC5=C(C=C4)OCO5)O)C(=O)OC6=CC=C(C=C6)[N+](=O)[O-] [JZL-184] + CC(=O)c1c(C)c2cnc(Nc3ccc(N4CCNCC4)cn3)nc2n(C2CCCC2)c1=O [Palbociclib] (partner 0.5 µM)
Experiment: relative viability (nuclei count vs DMSO), 5 days (fraction); higher = more cells survive
Summary of the method: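 One day after seeding in 1536-well plates, lung cancer cell lines were dosed by pin tool. Dosing was either single-drug or a fixed anchor-drug dose plus five library-drug doses (not always all listed) in √10 steps. After 5 days, nuclei were stained in one fix-and-stain step and counted on 4× images, and relative viability is the nuclei count of treated wells over that of vehicle wells, given as the median of duplicate plates.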

Row | Cell Line | relative viability (first compound 0.04 µM) | relative viability (first compound 0.4 µM) | relative viability (first compound 1.265 µM) | relative viability (first compound 4 µM)
1 | 201T | 0.383 | 0.339 | 0.373 | 0.344
2 | A-427 | 0.588 | 0.515 | 0.518 | 0.536
3 | ABC-1 | 0.861 | 0.641 | 0.399 | 0.696
4 | BEN | 0.457 | 0.46 | 0.445 | 0.491
5 | CAL-12T | 0.692 | 0.314 | 0.508 | 0.576
6 | COR-L23 | 0.337 | 0.234 | 0.287 | 0.273
7 | COR-L 105 | 0.464 | 0.376 | 0.371 | 0.409
8 | ChaGo-K-1 | 1 | 0.933 | 0.975 | 0.951
9 | EKVX | 0.436 | 0.331 | 0.323 | 0.371
10 | EMC-BAC-2 | 0.584 | 0.458 | 0.508 | 0.512
11 | EPLC-272H | 0.331 | 0.314 | 0.326 | 0.297
12 | H3255 | 0.353 | 0.322 | 0.343 | 0.323
13 | HARA | 0.25 | 0.204 | 0.273 | 0.238
14 | HCC-15 | 0.732 | 0.77 | 0.71 | 0.698
15 | HCC-44 | 0.965 | 0.967 | 1.03 | 0.981
16 | HCC-78 | 0.425 | 0.425 | 0.452 | 0.471
17 | HCC-366 | 0.426 | 0.374 | 0.394 | 0.322
18 | HCC-827 | 0.52 | 0.441 | 0.555 | 0.48
19 | HOP-62 | 0.481 | 0.374 | 0.453 | 0.455
20 | LC-2-ad | 0.579 | 0.504 | 0.488 | 0.484
21 | LCLC-97TM1 | 0.283 | 0.195 | 0.255 | 0.274
22 | LCLC-103H | 0.438 | 0.213 | 0.502 | 0.511
23 | LK-2 | 0.817 | 0.514 | 0.795 | 0.887
24 | LOU-NH91 | 0.524 | 0.509 | 0.558 | 0.448

Row | Cell Line | relative viability (first compound 0.04 µM) | relative viability (first compound 0.4 µM) | relative viability (first compound 1.265 µM) | relative viability (first compound 4 µM)
25 | LU99A | 0.455 | 0.36 | 0.471 | 0.42
26 | LXF-289 | 0.693 | 0.564 | 0.572 | 0.595
27 | NCI-H23 | 0.594 | – | 0.484 | 0.486
28 | NCI-H322M | 0.483 | 0.449 | 0.509 | 0.451
29 | NCI-H358 | 0.138 | 0.142 | 0.137 | 0.129
30 | NCI-H441 | 0.207 | 0.229 | 0.238 | 0.236
31 | NCI-H460 | 0.147 | 0.0967 | 0.149 | 0.201
32 | NCI-H520 | 0.189 | 0.221 | 0.223 | 0.219
33 | NCI-H522 | 1.23 | 0.936 | 1.13 | 0.903
34 | NCI-H647 | 0.369 | 0.285 | 0.407 | 0.359
35 | NCI-H650 | 0.358 | 0.292 | 0.321 | 0.317
36 | NCI-H661 | 0.408 | 0.378 | 0.399 | 0.403
37 | NCI-H727 | 0.64 | 0.708 | 0.63 | 0.738
38 | NCI-H838 | 0.22 | 0.259 | 0.235 | 0.199
39 | NCI-H1355 | 0.376 | 0.381 | 0.423 | 0.4
40 | NCI-H1395 | 0.661 | 0.598 | 0.63 | 0.573
41 | NCI-H1437 | 0.333 | 0.321 | 0.297 | 0.282
42 | NCI-H1650 | 0.395 | 0.368 | 0.408 | 0.302
43 | NCI-H1651 | 0.547 | 0.529 | 0.558 | 0.519
44 | NCI-H1666 | 0.685 | 0.642 | 0.636 | 0.668
45 | NCI-H1734 | 0.394 | 0.293 | 0.37 | 0.292
46 | NCI-H1755 | 0.44 | 0.451 | 0.473 | 0.452
47 | NCI-H1792 | 0.677 | 0.687 | 0.659 | 0.656
48 | NCI-H1793 | 0.271 | 0.285 | 0.281 | 0.312

Row | Cell Line | relative viability (first compound 0.04 µM) | relative viability (first compound 0.4 µM) | relative viability (first compound 1.265 µM) | relative viability (first compound 4 µM)
49 | NCI-H1915 | 0.506 | 0.511 | 0.531 | 0.511
50 | NCI-H1944 | 0.338 | 0.289 | 0.347 | 0.328
51 | NCI-H1975 | 0.679 | 0.579 | 0.614 | 0.575
52 | NCI-H1993 | 0.707 | 0.604 | 0.758 | 0.604
53 | NCI-H2009 | 0.172 | 0.188 | 0.241 | 0.219
54 | NCI-H2023 | 0.56 | 0.354 | 0.393 | 0.249
55 | NCI-H2085 | – | 0.489 | 0.44 | 0.469
56 | NCI-H2087 | 0.231 | 0.215 | 0.259 | 0.227
57 | NCI-H2126 | 0.329 | 0.357 | 0.359 | 0.345
58 | NCI-H2170 | 0.439 | 0.37 | 0.407 | 0.366
59 | NCI-H2228 | 0.947 | 0.511 | 0.842 | 0.768
60 | NCI-H2342 | 0.563 | 0.535 | 0.522 | 0.529
61 | NCI-H2347 | – | 0.398 | 0.407 | 0.443
62 | NCI-H2405 | 0.594 | 0.409 | 0.541 | 0.489
63 | NCI-H3122 | 0.168 | 0.181 | 0.22 | 0.208
64 | PC-3 [JPC-3] | 0.573 | 0.558 | 0.485 | 0.536
65 | PC-14 | 0.659 | 0.49 | 0.517 | 0.519
66 | RERF-LC-KJ | 1.17 | 1.14 | 1.17 | 0.982
67 | SK-LU-1 | 0.387 | 0.393 | 0.433 | 0.405
68 | SK-MES-1 | 0.372 | 0.311 | 0.316 | 0.297
69 | SW 900 | 0.548 | 0.513 | 0.558 | 0.521
70 | SW 1573 | 0.458 | 0.328 | 0.45 | 0.383
71 | UMC-11 | 0.327 | 0.339 | 0.366 | 0.35
